Source: patent US4485110A, “β-Lactam compounds, and use” (priority 1980, dated 1984)
Like-named read-outs stand apart in the source and are kept apart here.

How the values were obtained:
Experiment in all cases: Antibacterial activity, broth MIC
Type in all cases: cell-based
[1] = tested on: B. subtilis A; conditions: Bacillus subtilis, compound alone
Excerpt: (§1) The antibacterial activity of a number of compounds described in the foregoing Examples against a number of organisms is shown in Tables 1 and 10.

[2] = tested on: C. freundii E 8; conditions: Citrobacter freundii
Excerpt: as §1

[3] = tested on: E. cloacae N 1; conditions: Enterobacter cloacae, N1, compound alone
Excerpt: as §1

[4] = tested on: E. coli 0111; conditions: Escherichia coli, compound alone
Excerpt: as §1

[5] = tested on: E. coli ESS; conditions: Escherichia coli, read-out: Broth MIC
Excerpt: as §1

[6] = tested on: E. coli JT 39 R^+; conditions: Escherichia coli, read-out: Broth MIC
Excerpt: as §1

[7] = tested on: K. aerogenes A; conditions: Klebsiella aerogenes, read-out: Broth MIC
Excerpt: as §1

[8] = tested on: P. aeruginosa A; conditions: Pseudomonas aeruginosa, compound alone
Excerpt: as §1

[9] = tested on: P. mirabilis 977; conditions: Proteus mirabilis, compound alone
Excerpt: as §1

[10] = tested on: P. morganii I 580; conditions: Morganella morganii, I580, compound alone
Excerpt: as §1

[11] = tested on: P. rettgeri WM 16; conditions: Providencia rettgeri, WM16, compound alone
Excerpt: as §1

[12] = tested on: P. vulgaris WO 91; conditions: Proteus vulgaris, WO91, compound alone
Excerpt: as §1

[13] = tested on: S. aureus 1517; conditions: Staphylococcus aureus, compound alone
Excerpt: as §1

[14] = tested on: S. aureus Oxford; conditions: Staphylococcus aureus, compound alone
Excerpt: as §1

[15] = tested on: S. aureus Russell; conditions: Staphylococcus aureus, compound alone
Excerpt: as §1

[16] = tested on: S. faecalis I; conditions: Enterococcus faecalis, read-out: Broth MIC
Excerpt: as §1

[17] = tested on: S. marcescens US 20; conditions: Serratia marcescens
Excerpt: as §1

[18] = tested on: S. pneumoniae CN 33; conditions: Streptococcus pneumoniae, CN33, compound alone
Excerpt: as §1

[19] = tested on: S. pyogenes CN 10; conditions: Streptococcus pyogenes, CN10, compound alone
Excerpt: as §1

[20] = tested on: S. sonnei MB 11967; conditions: Shigella sonnei, MB11967, compound alone
Excerpt: as §1

[21] = tested on: S. typhimurium CT 10; conditions: Salmonella enterica, compound alone
Excerpt: as §1

[22] = E8, compound alone, broth, read-out: Broth MIC
[23] = US20, compound alone, broth, read-out: Broth MIC

With `CCSC1=C(C(=O)O)N2C(=O)C(=Cc3ccccc3)C2S1` (stereo not drawn) [Compound 118, (5RS)-Sodium (Z)-6-Benzylidene-2-ethylthiopenem-3-carboxylate] the MIC [1] was 12.5 mg/L, the MIC [2, 22] was > 100 mg/L and the MIC [3] was > 100 mg/L. For the same molecule, the MIC [4] was > 100 mg/L, the MIC [5] was > 1.6 mg/L and the MIC ([6]; compound alone, broth) was > 100 mg/L. The MIC ([7]; compound alone, broth) was > 100 mg/L, the MIC [8] was > 100 mg/L and the MIC [9] was > 100 mg/L. For the same molecule, the MIC [10] was > 100 mg/L, the MIC [11] was > 100 mg/L and the MIC [12] was > 100 mg/L. The MIC [13] was 100 mg/L, the MIC [14] was 1.6 mg/L and the MIC [15] was 3.1 mg/L. For the same molecule, the MIC ([16]; compound alone, broth) was > 100 mg/L, the MIC [17, 23] was > 100 mg/L and the MIC [18] was 1.6 mg/L. For the same molecule, the MIC [19] was 1.6 mg/L, the MIC [20] was > 100 mg/L and the MIC [21] was > 100 mg/L.
Work on `C/C=C1/C(=O)N2C(C(=O)O)=CSC12` (racemic) [Compound 40, (5RS)-Sodium(Z)-6-Ethylidenepenem-3-carboxylate] yielded an MIC [1] of 31 mg/L, an MIC [2, 22] of 125 mg/L and an MIC [3] of 125 mg/L. The MIC [4] was 62 mg/L, the MIC ([5]; compound alone, broth) was 16 mg/L and the MIC ([6]; compound alone, broth) was 62 mg/L. It also gave an MIC ([7]; compound alone, broth) of 62 mg/L, an MIC [8] of 250 mg/L and an MIC [9] of 250 mg/L. It also gave an MIC [10] of 250 mg/L, an MIC [11] of 125 mg/L and an MIC [12] of 250 mg/L. It also gave an MIC [13] of 125 mg/L, an MIC [14] of 8 mg/L and an MIC [15] of 16 mg/L. The MIC ([16]; compound alone, broth) was > 250 mg/L, the MIC [17, 23] was 250 mg/L and the MIC [18] was 31 mg/L. For the same molecule, the MIC [19] was 8 mg/L, the MIC [20] was 62 mg/L and the MIC [21] was 62 mg/L.
`C/C=C1/C(=O)N2C(C(=O)O)=C(C)SC12` (racemic) [Compound 76, (5RS)-Sodium (Z)-Ethylidene-2-methylpenem-3-carboxylate] was tested, and the MIC [1] was 25 mg/L, the MIC [2, 22] was 100 mg/L and the MIC [3] was > 100 mg/L. For the same molecule, the MIC [4] was 100 mg/L, the MIC ([5]; compound alone, broth) was 6.2 mg/L and the MIC ([6]; compound alone, broth) was 100 mg/L. For the same molecule, the MIC ([7]; compound alone, broth) was > 100 mg/L, the MIC [8] was 100 mg/L and the MIC [9] was 100 mg/L. For the same molecule, the MIC [10] was 100 mg/L, the MIC [11] was > 100 mg/L and the MIC [12] was > 100 mg/L. For the same molecule, the MIC [13] was 50 mg/L, the MIC [14] was 12.5 mg/L and the MIC [15] was 6.2 mg/L. For the same molecule, the MIC ([16]; compound alone, broth) was > 100 mg/L, the MIC [17, 23] was > 100 mg/L and the MIC [20] was 100 mg/L. It also gave an MIC [21] of 100 mg/L.
`CCSC1=C(C(=O)O)N2C(=O)C(=C(C)C)C2S1` (racemic) [Compound 129, (5RS)-Sodium 2-Ethylthio-6-isopropylidenepenem-3-carboxylate] gave an MIC [1] of 25 mg/L, an MIC [5] of 12.5 mg/L and an MIC [14] of 12.5 mg/L. For the same molecule, the MIC [15] was 12.5 mg/L, the MIC ([16]; compound alone, broth) was 50 mg/L and the MIC [18] was 1.6 mg/L. It also gave an MIC [19] of 0.4 mg/L.
In the case of `CC=C1C(=O)N2C(C(=O)O)=C(Sc3ccccn3)SC12` (racemic) [Compound 99, (5RS)-Sodium 6-Ethylidene-2-(2-pyridylthio)penem-3-carboxylate], the MIC [1] is reported as 6.2 mg/L, the MIC [2, 22] is reported as 100 mg/L and the MIC [3] is reported as 25 mg/L. The MIC [4] was 100 mg/L, the MIC ([5]; compound alone, broth) was 3.1 mg/L and the MIC ([6]; compound alone, broth) was 50 mg/L. The MIC ([7]; compound alone, broth) was 50 mg/L, the MIC [8] was > 100 mg/L and the MIC [9] was 100 mg/L. It also gave an MIC [10] of 50 mg/L, an MIC [11] of 25 mg/L and an MIC [12] of 50 mg/L. For the same molecule, the MIC [13] was 100 mg/L, the MIC [14] was 12.5 mg/L and the MIC [15] was 6.2 mg/L. The MIC ([16]; compound alone, broth) was > 100 mg/L, the MIC [17, 23] was 50 mg/L and the MIC [19] was 1.6 mg/L. It also gave an MIC [20] of 50 mg/L and an MIC [21] of 50 mg/L.
Molecule `CC=C1C(=O)N2C(C(=O)O)=C(SCCNC(C)=O)SC12` (racemic) [Compound 59, (5RS)-Sodium 2-(2-Acetamidoethylthio)-6-ethylidenepenem-3-carboxylate] has an MIC [1] of 3.1 mg/L, an MIC [2, 22] of 25 mg/L and an MIC [3] of 25 mg/L. For the same molecule, the MIC [4] was 25 mg/L, the MIC ([5]; compound alone, broth) was 3.1 mg/L and the MIC [6] was 12.5 mg/L. The MIC [7] was 12.5 mg/L, the MIC [8] was > 100 mg/L and the MIC [9] was 25 mg/L. For the same molecule, the MIC [10] was 25 mg/L, the MIC [11] was 25 mg/L and the MIC [12] was 25 mg/L. For the same molecule, the MIC [13] was > 100 mg/L, the MIC [14] was 3.1 mg/L and the MIC [15] was 3.1 mg/L. It also gave an MIC ([16]; compound alone, broth) of 100 mg/L, an MIC [17, 23] of 25 mg/L and an MIC [18] of 0.2 mg/L. The MIC [19] was ≤ 0.1 mg/L, the MIC [20] was 25 mg/L and the MIC [21] was 12.5 mg/L.
`CC=C1C(=O)N2C(C(=O)O)=C([S+]([O-])CC)SC12` (racemic) [Compound 103, (5RS)-Sodium 6-Ethylidene-2-ethylsulphinylpenem-3-carboxylate] was tested, and the MIC [1] was 25 mg/L, the MIC [2, 22] was > 100 mg/L and the MIC [3] was > 100 mg/L. For the same molecule, the MIC [4] was > 100 mg/L, the MIC ([5]; compound alone, broth) was 100 mg/L and the MIC ([6]; compound alone, broth) was > 100 mg/L. The MIC ([7]; compound alone, broth) was > 100 mg/L, the MIC [8] was > 100 mg/L and the MIC [9] was 100 mg/L. The MIC [10] was > 100 mg/L, the MIC [11] was > 100 mg/L and the MIC [12] was > 100 mg/L. For the same molecule, the MIC [13] was > 100 mg/L, the MIC [14] was 50 mg/L and the MIC [15] was > 100 mg/L. For the same molecule, the MIC ([16]; compound alone, broth) was > 100 mg/L, the MIC [17, 23] was > 100 mg/L and the MIC [18] was 25 mg/L. The MIC [19] was 12.5 mg/L, the MIC [20] was > 100 mg/L and the MIC [21] was > 100 mg/L.
`C/C=C1/C(=O)N2C(C(=O)O)=C(CCC)SC12` (racemic) [Compound 49, (5RS)-Sodium(Z)-6-Ethylidene-2-n-propylpenem-3-carboxylate] showed an MIC [1] of 1 mg/L, an MIC ([2]; E8, read-out: Broth MIC) of 125 mg/L and an MIC [3] of 62 mg/L. The MIC [4] was 125 mg/L, the MIC ([5]; compound alone, broth) was 1 mg/L and the MIC ([6]; compound alone, broth) was 62 mg/L. For the same molecule, the MIC ([7]; compound alone, broth) was 31 mg/L, the MIC [8] was > 250 mg/L and the MIC [9] was 62 mg/L. For the same molecule, the MIC [10] was 31 mg/L, the MIC [11] was 62 mg/L and the MIC [12] was 62 mg/L. It also gave an MIC [13] of 62 mg/L, an MIC [14] of 1 mg/L and an MIC [15] of 2 mg/L. For the same molecule, the MIC [16] was 125 mg/L, the MIC ([17]; US20, read-out: Broth MIC) was 125 mg/L and the MIC [18] was ≤ 0.2 mg/L. It also gave an MIC [20] of 62 mg/L and an MIC [21] of 62 mg/L.
In the case of `CC=C1C(=O)N2C(C(=O)O)=C(SCCN)SC12` (racemic) [Compound 101, (5RS)-Sodium 2-(2-aminoethylthio)-6-ethylidenepenem-3-carboxylate], the MIC [1] is reported as 12.5 mg/L, the MIC [2, 22] is reported as 100 mg/L and the MIC [3] is reported as 100 mg/L. The MIC [4] was 100 mg/L, the MIC ([5]; compound alone, broth) was 12.5 mg/L and the MIC ([6]; compound alone, broth) was 100 mg/L. The MIC ([7]; compound alone, broth) was 100 mg/L, the MIC [8] was > 100 mg/L and the MIC [9] was > 100 mg/L. The MIC [10] was > 100 mg/L, the MIC [11] was 100 mg/L and the MIC [12] was 100 mg/L. For the same molecule, the MIC [13] was > 100 mg/L, the MIC [14] was 3.1 mg/L and the MIC [15] was 3.1 mg/L. The MIC ([16]; compound alone, broth) was > 100 mg/L, the MIC [17, 23] was > 100 mg/L and the MIC [19] was 3.1 mg/L. For the same molecule, the MIC [20] was 100 mg/L and the MIC [21] was 100 mg/L.
For `C/C=C1\C(=O)N2C(C(=O)O)=C(SCC)SC12` (racemic) [Compound 29, (5RS)-Sodium (E)-6-Ethylidene-2-ethylthiopenem-3-carboxylate], the MIC [1] was 2 mg/L, the MIC [2, 22] was 62 mg/L and the MIC [3] was 31 mg/L. For the same molecule, the MIC [4] was 31 mg/L, the MIC ([5]; compound alone, broth) was 2 mg/L and the MIC ([6]; compound alone, broth) was 31 mg/L. The MIC ([7]; compound alone, broth) was 16 mg/L, the MIC [8] was > 500 mg/L and the MIC [9] was 125 mg/L. For the same molecule, the MIC [10] was 31 mg/L, the MIC [11] was 62 mg/L and the MIC [12] was 62 mg/L. For the same molecule, the MIC [13] was 16 mg/L, the MIC [14] was 2 mg/L and the MIC ([16]; compound alone, broth) was 250 mg/L. For the same molecule, the MIC [17, 23] was 62 mg/L, the MIC [18] was 1 mg/L and the MIC [19] was 4 mg/L. It also gave an MIC [20] of 62 mg/L and an MIC [21] of 62 mg/L.
